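Tested at 5 concentrations; 48 h exposure; 96-well plates; endpoints linearly interpolated, else capped at highest concentration. At the GI50, growth is halved.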 Calls of active or inactive are those of the source. Cut-off read from the data, not from the text of the source: active = GI50 up to about 1.1 µM and inactive = higher.
Columns and labels:
Test in all cases: DTP human tumour cell line panel, 48 h
HT-29 = tested on: HT-29
UO-31 = tested on: UO-31
RXF 393 = tested on: RXF 393
TK-10 = tested on: TK-10
OVCAR-8 = tested on: OVCAR-8
MOLT-4 = tested on: MOLT-4
EKVX = tested on: EKVX
U-251 = tested on: U-251
A498 = tested on: A498
NCI-H23 = tested on: NCI-H23
SNB-19 = tested on: SNB-19
HOP-62 = tested on: HOP-62
SW-620 = tested on: SW-620
LOX IMVI = tested on: LOX IMVI
NCI-H460 = tested on: NCI-H460
ACHN = tested on: ACHN
UACC-257 = tested on: UACC-257
CCRF-CEM = tested on: CCRF-CEM
MDA-MB-435 = tested on: MDA-MB-435

Measured: GI50

CN(C)CCNC(=O)c1cccc2ncc(-c3ccccc3)nc12
inactive: HT-29 6.17 µM | UO-31 8.89 µM | RXF 393 5.86 µM | TK-10 6.93 µM | OVCAR-8 7.52 µM | MOLT-4 2.52 µM | EKVX 13.3 µM | U-251 8.26 µM | A498 6.15 µM | NCI-H23 14.6 µM | SNB-19 17.1 µM | HOP-62 9.25 µM | SW-620 5.31 µM | LOX IMVI 7.66 µM | NCI-H460 4.41 µM | ACHN 5.35 µM | UACC-257 14.7 µM | CCRF-CEM 8.99 µM

O=C(/C=C/c1ccccc1O)c1cccc2ccccc12
inactive: HT-29 > 66.5 µM | UO-31 > 47.4 µM | RXF 393 43.2 µM | TK-10 > 100 µM | OVCAR-8 > 71 µM | MOLT-4 21.1 µM | EKVX > 87.9 µM | U-251 42.3 µM | A498 > 100 µM | NCI-H23 60.7 µM | SNB-19 69.2 µM | HOP-62 > 81.7 µM | SW-620 > 28.1 µM | LOX IMVI > 53.5 µM | NCI-H460 > 84.1 µM | ACHN > 100 µM | UACC-257 > 69.5 µM | CCRF-CEM 18.2 µM

Cc1cccc(C(C)(C)C)c1NC(=O)C(=O)C(c1cnc2ccccc2n1)[N+](=O)[O-] (stereo not given)
inactive: HT-29 > 100 µM | UO-31 > 100 µM | RXF 393 > 100 µM | TK-10 > 100 µM | OVCAR-8 > 100 µM | MOLT-4 58.1 µM | EKVX > 100 µM | U-251 > 100 µM | A498 > 100 µM | NCI-H23 > 100 µM | SNB-19 > 100 µM | HOP-62 > 100 µM | SW-620 > 100 µM | LOX IMVI > 100 µM | NCI-H460 62.2 µM | ACHN > 100 µM | UACC-257 > 100 µM | CCRF-CEM 32.1 µM

O=c1[nH]cnc(NC2C=C(CO)C(O)C2O)c1[N+](=O)[O-] (stereo not given)
inactive: HT-29 > 100 µM | UO-31 > 100 µM | RXF 393 > 100 µM | TK-10 > 100 µM | OVCAR-8 > 100 µM | MOLT-4 > 100 µM | EKVX > 100 µM | U-251 > 63.5 µM | A498 > 100 µM | NCI-H23 > 100 µM | SNB-19 > 100 µM | HOP-62 > 100 µM | SW-620 > 43.2 µM | LOX IMVI > 41.2 µM | NCI-H460 > 40.1 µM | ACHN > 100 µM | UACC-257 > 100 µM | CCRF-CEM > 71.1 µM

CC1=N/C(=C\c2ccc(N)cc2)C(=O)N1Nc1nnc(NN2C(=O)/C(=C/c3ccc(N)cc3)N=C2C)c2ccccc12
inactive: HT-29 > 100 µM | RXF 393 22.5 µM | OVCAR-8 > 100 µM | MOLT-4 35.2 µM | EKVX > 100 µM | U-251 45.4 µM | A498 > 100 µM | NCI-H23 > 100 µM | SNB-19 33 µM | HOP-62 23.1 µM | SW-620 83.9 µM | LOX IMVI 41.9 µM | NCI-H460 > 100 µM | ACHN > 100 µM | UACC-257 > 100 µM | CCRF-CEM 18.6 µM

C/C(CCn1[nH]c(=O)ccc1=O)=N\Nc1ccc([N+](=O)[O-])cc1[N+](=O)[O-]
inactive: HT-29 > 100 µM | UO-31 12.7 µM | RXF 393 > 100 µM | TK-10 > 100 µM | OVCAR-8 93.1 µM | MOLT-4 > 100 µM | EKVX > 100 µM | A498 > 100 µM | NCI-H23 > 100 µM | SNB-19 > 100 µM | HOP-62 > 100 µM | SW-620 > 100 µM | LOX IMVI 26.8 µM | NCI-H460 37 µM | ACHN 90.8 µM | UACC-257 > 100 µM | CCRF-CEM > 100 µM

CC(NC(=O)OC(C)(C)C)C(=O)NC1CCCC1 (stereo not given)
inactive: HT-29 > 100 µM | UO-31 > 100 µM | RXF 393 > 100 µM | TK-10 > 100 µM | OVCAR-8 > 100 µM | MOLT-4 > 100 µM | EKVX > 100 µM | A498 > 100 µM | NCI-H23 > 100 µM | MDA-MB-435 > 100 µM | SNB-19 > 100 µM | SW-620 > 100 µM | LOX IMVI > 100 µM | NCI-H460 > 100 µM | ACHN > 100 µM | UACC-257 > 100 µM | CCRF-CEM > 100 µM

COc1cc2cc(OC(C)=O)c3cc4c(cc3c2c(OC)c1OC)OCO4
inactive: HT-29 > 100 µM | UO-31 > 100 µM | RXF 393 > 100 µM | TK-10 > 100 µM | OVCAR-8 > 100 µM | MOLT-4 > 100 µM | EKVX > 100 µM | U-251 > 100 µM | A498 > 100 µM | NCI-H23 > 100 µM | SNB-19 > 100 µM | HOP-62 > 100 µM | SW-620 > 100 µM | LOX IMVI > 100 µM | NCI-H460 > 100 µM | ACHN > 100 µM | UACC-257 > 100 µM | CCRF-CEM > 100 µM

— ChEMBL document CHEMBL1201862, “PubChem BioAssay data set” (2004)
